Laboratory results published in PubChem BioAssay AID1963851 (Molecular Pharmacology Branch, DTP, NCI, 2024).

Tested on: 188146-221-R-J1-PDC complex spheroid viability
Experiment: Anticancer human tumor 188146-221-R-J1-PDC patient-derived colon adenocarcinoma cell line growth inhibition [POLQ]
Details: for IC50: curve of first compound; for viability, T/C: stronger effect = lower value
Method in brief: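 Growth inhibition in 3D: complex spheroids (tumor PDC, HUVEC, MSC) treated with POLQ inhibitor combinations; where Cmax unknown, highest tested concentration 10 microM, except SN-38 at 1 microM.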

[1] = second compound 0.0316 µM, first compound 0.0316 µM
[2] = second compound 0.0316 µM, first compound 0.1 µM
[3] = second compound 0.0316 µM, first compound 0.316 µM
[4] = second compound 0.0316 µM, first compound 1 µM
[5] = second compound 0.0316 µM, first compound 3.16 µM
[6] = second compound 0.0316 µM, first compound 10 µM
[7] = second compound 0.1 µM, first compound 0.0316 µM
[8] = second compound 0.1 µM, first compound 0.1 µM
[9] = second compound 0.1 µM, first compound 0.316 µM
[10] = second compound 0.1 µM, first compound 1 µM
[11] = second compound 0.1 µM, first compound 3.16 µM
[12] = second compound 0.1 µM, first compound 10 µM
[13] = second compound 0.316 µM, first compound 0.0316 µM
[14] = second compound 0.316 µM, first compound 0.1 µM
[15] = second compound 0.316 µM, first compound 0.316 µM
[16] = second compound 0.316 µM, first compound 1 µM
[17] = second compound 0.316 µM, first compound 3.16 µM
[18] = second compound 0.316 µM, first compound 10 µM
[19] = second compound 1 µM, first compound 0.0316 µM
[20] = second compound 1 µM, first compound 0.1 µM
[21] = second compound 1 µM, first compound 0.316 µM
[22] = second compound 1 µM, first compound 1 µM
[23] = second compound 1 µM, first compound 3.16 µM
[24] = second compound 1 µM, first compound 10 µM
[25] = second compound 3.16 µM, first compound 0.0316 µM
[26] = second compound 3.16 µM, first compound 0.1 µM
[27] = second compound 3.16 µM, first compound 0.316 µM
[28] = second compound 3.16 µM, first compound 1 µM
[29] = second compound 3.16 µM, first compound 3.16 µM
[30] = second compound 3.16 µM, first compound 10 µM
[31] = second compound 10 µM, first compound 0.0316 µM
[32] = second compound 10 µM, first compound 0.1 µM
[33] = second compound 10 µM, first compound 0.316 µM
[34] = second compound 10 µM, first compound 1 µM
[35] = second compound 10 µM, first compound 3.16 µM
[36] = second compound 10 µM, first compound 10 µM
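Note: spheroids exposed to compounds for seven days.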
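Throughout, for viability, T/C: 100% = DMSO vehicle control viability.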

**Q.** Which results are given for C#Cc1c(F)ccc2cc(O)cc(-c3ncc4c(N5CC6CCC(C5)N6)nc(OCC56CCCN5CC(F)C6)nc4c3F)c12 (centres undefined) + COC1C(OC(N)=O)C(O)C(Oc2ccc3c(O)c(NC(=O)c4ccc(O)c(CC=C(C)C)c4)c(=O)oc3c2C)OC1(C)C?
**A.** IC50 (second compound 0.0316 µM): > 10000 nM; IC50 (second compound 0.1 µM): > 10000 nM; IC50 (second compound 0.316 µM): > 10000 nM; IC50 (second compound 1 µM): > 10000 nM; IC50 (second compound 3.16 µM): > 10000 nM; IC50 (second compound 10 µM): > 10000 nM; viability, T/C [1]: 105%; viability, T/C [2]: 93.5%; viability, T/C [3]: 100%; viability, T/C [4]: 100%; viability, T/C [5]: 103%; viability, T/C [6]: 83.1%; viability, T/C [7]: 122%; viability, T/C [8]: 94%; viability, T/C [9]: 92.5%; viability, T/C [10]: 95.9%; viability, T/C [11]: 85.2%; viability, T/C [12]: 93.5%; viability, T/C [13]: 113%; viability, T/C [14]: 95.9%; viability, T/C [15]: 102%; viability, T/C [16]: 92.8%; viability, T/C [17]: 92.5%; viability, T/C [18]: 103%; viability, T/C [19]: 112%; viability, T/C [20]: 96.1%; viability, T/C [21]: 100%; viability, T/C [22]: 90.5%; viability, T/C [23]: 93.8%; viability, T/C [24]: 88.8%; viability, T/C [25]: 106%; viability, T/C [26]: 103%; viability, T/C [27]: 110%; viability, T/C [28]: 87.2%; viability, T/C [29]: 104%; viability, T/C [30]: 82.6%; viability, T/C [31]: 100%; viability, T/C [32]: 98.6%; viability, T/C [33]: 108%; viability, T/C [34]: 97.2%; viability, T/C [35]: 95.6%; viability, T/C [36]: 92.8%

**Q.** How did the IC50 (second compound 0.0316 µM) turn out when CC1COCCN1c1cc(C2(O)CC3CCC(C2)O3)c2cnn(-c3ccn[nH]3)c2n1 (centres undefined) + COC1C(OC(N)=O)C(O)C(Oc2ccc3c(O)c(NC(=O)c4ccc(O)c(CC=C(C)C)c4)c(=O)oc3c2C)OC1(C)C was run?
**A.** 295 nM

**Q.** And the IC50 (second compound 0.1 µM)?
**A.** 428 nM

**Q.** And the IC50 (second compound 0.316 µM)?
**A.** 425 nM

**Q.** And the IC50 (second compound 1 µM)?
**A.** 425 nM

**Q.** What about the IC50 (second compound 3.16 µM) of the same compound?
**A.** 299 nM

**Q.** And the IC50 (second compound 10 µM)?
**A.** 195 nM

**Q.** And the viability, T/C [1]?
**A.** 93.4%

**Q.** And the viability, T/C [2]?
**A.** 68.8%

**Q.** And the viability, T/C [3]?
**A.** 53.1%

**Q.** And the viability, T/C [4]?
**A.** 25.5%

**Q.** And the viability, T/C [5]?
**A.** 18%

**Q.** What about the viability, T/C [6] of the same compound?
**A.** 9.03%

**Q.** And the viability, T/C [7]?
**A.** 94.5%

**Q.** And the viability, T/C [8]?
**A.** 78.5%

**Q.** What about the viability, T/C [9] of the same compound?
**A.** 56.9%

**Q.** And the viability, T/C [10]?
**A.** 30.9%

**Q.** What about the viability, T/C [11] of the same compound?
**A.** 21.2%

**Q.** What about the viability, T/C [12] of the same compound?
**A.** 8.19%

**Q.** And the viability, T/C [13]?
**A.** 94.7%

**Q.** What about the viability, T/C [14] of the same compound?
**A.** 74.1%

**Q.** And the viability, T/C [15]?
**A.** 57%

**Q.** And the viability, T/C [16]?
**A.** 35.4%

**Q.** What about the viability, T/C [17] of the same compound?
**A.** 17%

**Q.** And the viability, T/C [18]?
**A.** 9.09%

**Q.** What about the viability, T/C [19] of the same compound?
**A.** 93.8%

**Q.** And the viability, T/C [20]?
**A.** 79.3%

**Q.** What about the viability, T/C [21] of the same compound?
**A.** 57.2%

**Q.** And the viability, T/C [22]?
**A.** 30.6%

**Q.** What about the viability, T/C [23] of the same compound?
**A.** 17.5%

**Q.** And the viability, T/C [24]?
**A.** 9.21%

**Q.** What about the viability, T/C [25] of the same compound?
**A.** 82.1%

**Q.** What about the viability, T/C [26] of the same compound?
**A.** 67.2%

**Q.** What about the viability, T/C [27] of the same compound?
**A.** 51.3%

**Q.** What about the viability, T/C [28] of the same compound?
**A.** 26.3%

**Q.** And the viability, T/C [29]?
**A.** 14.9%

**Q.** What about the viability, T/C [30] of the same compound?
**A.** 8.05%

**Q.** And the viability, T/C [31]?
**A.** 90.5%

**Q.** And the viability, T/C [32]?
**A.** 62.4%

**Q.** And the viability, T/C [33]?
**A.** 41.8%

**Q.** What about the viability, T/C [34] of the same compound?
**A.** 22.8%

**Q.** And the viability, T/C [35]?
**A.** 19%

**Q.** What about the viability, T/C [36] of the same compound?
**A.** 7.81%
